Test results published in the NIST ThermoML archive (doi:10.1016/j.jct.2017.06.006).
± gives the expanded uncertainty stated by the source.

Assay: mn = molality of the nth substance listed, in mol/kg
Settings: 100 kPa, Liquid, Vibrating tube method

O [water] + CCCCn1cc[n+](C)c1C.[Br-]
Settings | mass density [kg/m3]
283.15 K, m2 = 0 | 999.72 ± 0.36

O [water] + N[C@@H](Cc1ccccc1)C(=O)O
Settings | mass density [kg/m3]
283.15 K, m2 = 0 | 999.72 ± 0.3

N[C@@H](Cc1ccccc1)C(=O)O [L-phenylalanine] + O
mass density [kg/m3]
Settings | m1 = 0.0102 | m1 = 0.0203 | m1 = 0.0293 | m1 = 0.0398 | m1 = 0.0509 | m1 = 0.0606 | m1 = 0.061 | m1 = 0.0736 | m1 = 0.0915 | m1 = 0.1028
283.15 K | 1000.19 ± 0.3 | 1000.64 ± 0.3 | 1001.05 ± 0.3 | 1001.53 ± 0.3 | 1002.02 ± 0.3 | 1002.47 ± 0.3 | 1002.49 ± 0.3 | 1003.05 ± 0.3 | 1003.87 ± 0.3 | 1004.36 ± 0.3
288.15 K | 999.59 ± 0.3 | 1000.04 ± 0.3 | 1000.44 ± 0.3 | 1000.91 ± 0.3 | 1001.39 ± 0.3 | 1001.83 ± 0.31 | 1001.85 ± 0.3 | 1002.4 ± 0.3 | 1003.2 ± 0.3 | 1003.69 ± 0.3
293.15 K | 998.69 ± 0.3 | 999.13 ± 0.3 | 999.52 ± 0.3 | 999.98 ± 0.3 | 1000.46 ± 0.3 | 1000.9 ± 0.31 | 1000.91 ± 0.3 | 1001.45 ± 0.3 | 1002.24 ± 0.3 | 1002.73 ± 0.3
298.15 K | 997.52 ± 0.3 | 997.95 ± 0.3 | 998.35 ± 0.3 | 998.8 ± 0.3 | 999.27 ± 0.3 | 999.7 ± 0.31 | 999.71 ± 0.3 | 1000.25 ± 0.3 | 1001.03 ± 0.3 | 1001.5 ± 0.3
303.15 K | 996.12 ± 0.3 | 996.54 ± 0.3 | 996.93 ± 0.3 | 997.38 ± 0.3 | 997.85 ± 0.3 | 998.27 ± 0.3 | 998.28 ± 0.3 | 998.81 ± 0.3 | 999.58 ± 0.3 | 1000.05 ± 0.3

CCCCn1cc[n+](C)c1C.[Br-] [1-butyl-2,3-dimethylimidazolium bromide] + O
m1 = 0.1
Settings | mass density [kg/m3]
283.15 K | 1004.75 ± 0.36
288.15 K | 1004.08 ± 0.36
293.15 K | 1003.12 ± 0.36
298.15 K | 1001.89 ± 0.36
303.15 K | 1000.44 ± 0.36
